Test results: ChEMBL document CHEMBL1201862, “PubChem BioAssay data set” (2004)
The source made the active and inactive calls.

Experiments:
[1] = target: T1, Rac GTPase-activating protein 1 (Homo sapiens, UniProt Q9H0H5); assay: blockers of MgcRacGAP-driven Rac1 GTP hydrolysis – biochemical, ADP Hunter fluorescence, primary and confirmatory, confirmation (AID 624330); format: functional
T1 sequence (Q9H0H5 whole entry): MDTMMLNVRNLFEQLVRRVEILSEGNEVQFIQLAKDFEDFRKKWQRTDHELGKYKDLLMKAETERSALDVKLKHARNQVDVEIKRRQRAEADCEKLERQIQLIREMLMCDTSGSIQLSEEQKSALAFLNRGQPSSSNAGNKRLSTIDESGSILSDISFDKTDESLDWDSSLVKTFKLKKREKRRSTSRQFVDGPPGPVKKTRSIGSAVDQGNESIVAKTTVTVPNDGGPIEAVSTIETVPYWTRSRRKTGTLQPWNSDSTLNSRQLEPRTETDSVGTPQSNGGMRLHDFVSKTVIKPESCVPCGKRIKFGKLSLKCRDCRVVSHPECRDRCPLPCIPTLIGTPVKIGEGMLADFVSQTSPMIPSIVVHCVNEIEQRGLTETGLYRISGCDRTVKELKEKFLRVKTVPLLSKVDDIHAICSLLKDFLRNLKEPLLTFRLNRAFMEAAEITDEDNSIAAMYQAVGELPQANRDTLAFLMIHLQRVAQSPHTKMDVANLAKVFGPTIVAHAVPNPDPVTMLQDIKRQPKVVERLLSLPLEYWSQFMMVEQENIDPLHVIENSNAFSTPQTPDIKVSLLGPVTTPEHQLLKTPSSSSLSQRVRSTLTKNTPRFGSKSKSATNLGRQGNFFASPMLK

[2] = target: Genome polyprotein (dengue virus type 2, UniProt P29990); assay: flavivirus cap methylation enzyme inhibition – biochemical, confirmation dose response, primary screen (AID 588689); format: functional
[3] = target: T2, Voltage-gated N-type calcium channel alpha-1B subunit/Amyloid beta A4 precursor protein-binding family A member 1 (Homo sapiens, UniProt Q00975+Q02410); format: protein assay
T2 sequence (Q00975 whole entry): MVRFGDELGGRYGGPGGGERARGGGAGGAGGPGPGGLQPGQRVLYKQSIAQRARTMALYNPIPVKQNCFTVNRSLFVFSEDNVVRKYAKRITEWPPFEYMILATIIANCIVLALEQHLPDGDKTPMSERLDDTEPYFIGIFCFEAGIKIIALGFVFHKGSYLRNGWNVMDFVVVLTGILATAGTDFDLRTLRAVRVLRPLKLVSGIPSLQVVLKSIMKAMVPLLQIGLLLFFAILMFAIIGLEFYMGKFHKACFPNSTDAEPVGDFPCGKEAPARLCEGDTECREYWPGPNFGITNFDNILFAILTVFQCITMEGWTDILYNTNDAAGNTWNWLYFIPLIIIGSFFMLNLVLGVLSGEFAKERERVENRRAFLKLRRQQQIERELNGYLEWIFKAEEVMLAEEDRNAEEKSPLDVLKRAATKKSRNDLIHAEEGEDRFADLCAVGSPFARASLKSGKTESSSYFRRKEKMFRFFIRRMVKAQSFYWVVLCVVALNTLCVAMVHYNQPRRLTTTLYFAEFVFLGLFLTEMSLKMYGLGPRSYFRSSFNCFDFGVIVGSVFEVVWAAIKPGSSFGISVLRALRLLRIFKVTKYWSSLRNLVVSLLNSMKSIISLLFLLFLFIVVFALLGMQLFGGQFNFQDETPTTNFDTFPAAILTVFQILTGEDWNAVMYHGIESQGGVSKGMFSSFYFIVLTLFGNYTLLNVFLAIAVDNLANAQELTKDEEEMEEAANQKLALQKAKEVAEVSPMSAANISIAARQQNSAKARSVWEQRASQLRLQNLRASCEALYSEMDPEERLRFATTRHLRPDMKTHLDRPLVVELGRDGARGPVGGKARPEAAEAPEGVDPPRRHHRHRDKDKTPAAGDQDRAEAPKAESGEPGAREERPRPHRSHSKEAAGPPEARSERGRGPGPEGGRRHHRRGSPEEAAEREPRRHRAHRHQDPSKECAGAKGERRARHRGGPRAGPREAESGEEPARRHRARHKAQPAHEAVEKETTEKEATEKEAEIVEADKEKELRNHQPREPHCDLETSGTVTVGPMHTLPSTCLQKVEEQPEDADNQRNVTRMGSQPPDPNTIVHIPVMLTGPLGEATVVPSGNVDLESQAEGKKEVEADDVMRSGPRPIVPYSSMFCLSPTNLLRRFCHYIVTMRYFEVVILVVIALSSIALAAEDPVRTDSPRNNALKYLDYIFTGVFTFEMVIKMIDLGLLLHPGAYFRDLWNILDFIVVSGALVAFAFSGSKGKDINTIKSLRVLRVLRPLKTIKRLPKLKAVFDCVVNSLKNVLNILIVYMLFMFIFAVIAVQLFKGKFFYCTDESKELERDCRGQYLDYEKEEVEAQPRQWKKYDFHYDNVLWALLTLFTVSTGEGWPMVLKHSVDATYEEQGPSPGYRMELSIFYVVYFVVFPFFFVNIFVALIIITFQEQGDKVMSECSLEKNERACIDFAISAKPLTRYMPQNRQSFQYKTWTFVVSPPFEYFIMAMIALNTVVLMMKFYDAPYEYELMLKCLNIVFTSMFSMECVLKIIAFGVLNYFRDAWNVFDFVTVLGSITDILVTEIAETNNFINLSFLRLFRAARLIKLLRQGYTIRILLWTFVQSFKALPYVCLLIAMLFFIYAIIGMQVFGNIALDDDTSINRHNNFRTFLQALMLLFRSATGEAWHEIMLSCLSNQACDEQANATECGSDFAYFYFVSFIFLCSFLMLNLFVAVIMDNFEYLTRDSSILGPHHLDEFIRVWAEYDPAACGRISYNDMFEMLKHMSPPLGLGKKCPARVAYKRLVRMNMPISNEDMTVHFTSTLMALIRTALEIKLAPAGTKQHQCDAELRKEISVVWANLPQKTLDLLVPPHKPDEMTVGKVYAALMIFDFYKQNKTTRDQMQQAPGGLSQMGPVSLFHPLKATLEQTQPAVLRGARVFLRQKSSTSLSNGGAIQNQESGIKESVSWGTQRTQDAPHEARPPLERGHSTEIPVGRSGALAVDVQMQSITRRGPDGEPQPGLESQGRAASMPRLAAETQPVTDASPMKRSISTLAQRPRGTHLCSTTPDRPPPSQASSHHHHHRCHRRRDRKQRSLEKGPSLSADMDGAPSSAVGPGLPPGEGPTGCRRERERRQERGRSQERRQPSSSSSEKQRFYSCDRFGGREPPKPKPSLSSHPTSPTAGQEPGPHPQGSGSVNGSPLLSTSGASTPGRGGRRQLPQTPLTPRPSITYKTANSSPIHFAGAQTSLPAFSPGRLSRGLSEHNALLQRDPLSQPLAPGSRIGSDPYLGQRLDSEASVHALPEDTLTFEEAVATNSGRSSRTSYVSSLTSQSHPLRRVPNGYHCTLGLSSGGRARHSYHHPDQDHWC
T2 sequence (Q02410 whole entry): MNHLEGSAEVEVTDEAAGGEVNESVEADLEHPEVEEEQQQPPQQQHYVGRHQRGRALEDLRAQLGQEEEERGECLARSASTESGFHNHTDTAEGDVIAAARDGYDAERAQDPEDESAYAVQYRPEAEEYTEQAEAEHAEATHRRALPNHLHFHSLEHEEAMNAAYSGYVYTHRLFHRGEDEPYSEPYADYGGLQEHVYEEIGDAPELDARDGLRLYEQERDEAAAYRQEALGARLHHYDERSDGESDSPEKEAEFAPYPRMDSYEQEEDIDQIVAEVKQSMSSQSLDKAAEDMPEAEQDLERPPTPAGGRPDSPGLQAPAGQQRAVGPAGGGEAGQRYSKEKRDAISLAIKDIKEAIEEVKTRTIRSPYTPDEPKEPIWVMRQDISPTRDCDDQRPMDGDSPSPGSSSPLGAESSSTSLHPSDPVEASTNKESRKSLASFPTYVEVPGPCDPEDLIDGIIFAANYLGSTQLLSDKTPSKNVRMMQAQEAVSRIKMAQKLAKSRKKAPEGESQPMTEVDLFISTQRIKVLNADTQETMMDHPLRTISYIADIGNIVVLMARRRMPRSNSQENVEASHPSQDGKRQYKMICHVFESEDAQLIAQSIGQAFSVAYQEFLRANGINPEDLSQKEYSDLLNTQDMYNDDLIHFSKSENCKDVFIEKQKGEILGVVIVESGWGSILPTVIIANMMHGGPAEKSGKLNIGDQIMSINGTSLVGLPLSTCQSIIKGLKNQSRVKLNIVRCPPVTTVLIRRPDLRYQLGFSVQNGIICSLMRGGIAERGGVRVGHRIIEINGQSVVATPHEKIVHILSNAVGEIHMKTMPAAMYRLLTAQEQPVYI

[4] = target: T2, Voltage-gated N-type calcium channel alpha-1B subunit/Amyloid beta A4 precursor protein-binding family A member 1; format: protein assay; remark: listed apart in the source
[5] = target: T3, Microphthalmia-associated transcription factor (Homo sapiens, UniProt O75030); assay: reducers of TRPM1 reporter luminescence, concentration series – cell-based, SK-MEL-5, cherry-picked, set 3, MITF inhibitor project, dose response (AID 493073); format: functional;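 further: SK-MEL-5 melanoma cells with luciferase driven by the MITF target TRPM1 promoter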
T3 sequence (O75030 whole entry): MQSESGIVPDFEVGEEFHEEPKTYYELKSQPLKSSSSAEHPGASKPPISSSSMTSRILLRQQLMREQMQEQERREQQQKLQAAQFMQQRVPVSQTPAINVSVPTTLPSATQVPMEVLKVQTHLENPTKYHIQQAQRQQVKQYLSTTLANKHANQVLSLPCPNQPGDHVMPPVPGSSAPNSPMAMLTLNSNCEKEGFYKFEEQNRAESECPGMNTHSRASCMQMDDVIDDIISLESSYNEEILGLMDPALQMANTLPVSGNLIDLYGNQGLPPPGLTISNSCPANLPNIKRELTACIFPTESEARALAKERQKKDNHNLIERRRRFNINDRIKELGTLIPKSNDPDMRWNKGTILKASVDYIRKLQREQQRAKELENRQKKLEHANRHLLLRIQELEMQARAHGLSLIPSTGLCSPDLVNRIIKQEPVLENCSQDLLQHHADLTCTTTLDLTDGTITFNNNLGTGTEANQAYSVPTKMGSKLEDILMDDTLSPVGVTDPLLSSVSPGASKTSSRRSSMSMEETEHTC

[6] = target: T4, High affinity choline transporter 1 (Homo sapiens, UniProt Q9GZV3); assay: human choline transporter blockers, potency – cell-based, 5-point CRC, membrane potential dye, dose response (AID 504840); format: functional
T4 sequence (Q9GZV3 whole entry): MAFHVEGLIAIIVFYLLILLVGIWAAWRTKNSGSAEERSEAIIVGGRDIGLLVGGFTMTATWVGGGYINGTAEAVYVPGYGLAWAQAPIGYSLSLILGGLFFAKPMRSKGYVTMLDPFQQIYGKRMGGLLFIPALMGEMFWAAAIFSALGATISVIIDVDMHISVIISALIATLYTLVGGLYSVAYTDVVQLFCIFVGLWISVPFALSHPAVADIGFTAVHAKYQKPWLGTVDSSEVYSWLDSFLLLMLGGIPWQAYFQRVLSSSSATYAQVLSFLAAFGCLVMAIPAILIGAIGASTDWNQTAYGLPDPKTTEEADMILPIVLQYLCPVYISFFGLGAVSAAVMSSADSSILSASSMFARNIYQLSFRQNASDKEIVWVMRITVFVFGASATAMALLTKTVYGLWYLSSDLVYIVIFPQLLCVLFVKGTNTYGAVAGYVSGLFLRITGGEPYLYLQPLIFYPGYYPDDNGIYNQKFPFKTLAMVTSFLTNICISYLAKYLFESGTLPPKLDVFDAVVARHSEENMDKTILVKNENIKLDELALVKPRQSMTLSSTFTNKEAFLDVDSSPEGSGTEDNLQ

[7] = target: Cytochrome P450 2C9 (Homo sapiens, UniProt P11712)
[8] = target: Cytochrome P450 3A4 (Homo sapiens, UniProt P08684);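 further: CYP3A4 tested as one member of a cytochrome P450 panel screen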
Cytochrome P450 3A4, sequence (P08684 whole entry): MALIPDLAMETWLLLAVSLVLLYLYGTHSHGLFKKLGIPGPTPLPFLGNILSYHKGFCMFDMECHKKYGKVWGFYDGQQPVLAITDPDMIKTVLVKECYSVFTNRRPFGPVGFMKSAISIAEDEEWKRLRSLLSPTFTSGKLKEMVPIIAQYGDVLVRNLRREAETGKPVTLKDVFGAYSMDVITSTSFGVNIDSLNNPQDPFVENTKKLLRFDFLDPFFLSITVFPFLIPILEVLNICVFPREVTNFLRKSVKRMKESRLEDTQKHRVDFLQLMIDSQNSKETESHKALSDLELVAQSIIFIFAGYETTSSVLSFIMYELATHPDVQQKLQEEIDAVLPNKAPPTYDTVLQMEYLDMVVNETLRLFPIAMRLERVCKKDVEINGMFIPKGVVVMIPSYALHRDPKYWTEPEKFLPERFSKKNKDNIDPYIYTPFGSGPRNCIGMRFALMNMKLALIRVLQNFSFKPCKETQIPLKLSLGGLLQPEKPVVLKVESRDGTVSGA

[9] = target: Nonstructural protein 1 (Influenza A virus, UniProt Q194T2); format: functional, Influenza A virus (A/California/07/2009(H1N1))
[10] = target: Alkaline phosphatase, placental type (Homo sapiens, UniProt P05187); assay: human placental alkaline phosphatase inhibition – biochemical, luminescence, confirmation (AID 1512); format: functional
Alkaline phosphatase, placental type, sequence (P05187 whole entry): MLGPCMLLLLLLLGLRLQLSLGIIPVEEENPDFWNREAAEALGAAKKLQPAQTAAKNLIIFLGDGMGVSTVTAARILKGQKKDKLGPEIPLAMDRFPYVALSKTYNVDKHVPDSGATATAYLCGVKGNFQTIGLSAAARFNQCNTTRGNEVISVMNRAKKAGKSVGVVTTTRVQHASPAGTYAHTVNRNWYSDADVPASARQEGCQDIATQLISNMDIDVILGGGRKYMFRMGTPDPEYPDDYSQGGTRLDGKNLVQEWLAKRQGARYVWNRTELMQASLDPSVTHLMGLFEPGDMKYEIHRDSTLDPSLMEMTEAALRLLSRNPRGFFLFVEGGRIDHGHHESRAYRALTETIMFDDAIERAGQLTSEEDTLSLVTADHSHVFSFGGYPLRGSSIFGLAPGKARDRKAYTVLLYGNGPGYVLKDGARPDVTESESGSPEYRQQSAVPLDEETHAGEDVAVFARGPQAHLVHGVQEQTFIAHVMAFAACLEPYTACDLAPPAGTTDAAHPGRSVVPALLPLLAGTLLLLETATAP

[11] = target: T5, Alkaline phosphatase, tissue-nonspecific isozyme (Homo sapiens, UniProt P05186); assay: potency against alkaline phosphatase TNAP – biochemical, luminescent, dose response, SAR follow-up (AID 1056)
T5 sequence (P05186 whole entry): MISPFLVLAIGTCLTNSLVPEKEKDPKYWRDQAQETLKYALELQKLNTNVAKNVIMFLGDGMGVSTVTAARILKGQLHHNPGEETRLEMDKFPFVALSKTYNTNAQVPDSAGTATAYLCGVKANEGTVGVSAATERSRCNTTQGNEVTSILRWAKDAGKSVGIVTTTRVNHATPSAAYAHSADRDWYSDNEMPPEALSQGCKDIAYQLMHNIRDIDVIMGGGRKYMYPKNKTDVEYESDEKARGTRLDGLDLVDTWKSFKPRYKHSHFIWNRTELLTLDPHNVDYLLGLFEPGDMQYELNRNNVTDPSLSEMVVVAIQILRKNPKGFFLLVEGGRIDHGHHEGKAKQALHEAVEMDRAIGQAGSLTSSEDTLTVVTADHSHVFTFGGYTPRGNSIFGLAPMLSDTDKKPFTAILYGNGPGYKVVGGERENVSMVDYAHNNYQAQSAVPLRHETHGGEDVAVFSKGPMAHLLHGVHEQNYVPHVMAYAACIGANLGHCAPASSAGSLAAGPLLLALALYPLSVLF

[12] = target: Glyceraldehyde-3-phosphate dehydrogenase (Homo sapiens, UniProt P04406)
Glyceraldehyde-3-phosphate dehydrogenase, sequence (P04406 whole entry): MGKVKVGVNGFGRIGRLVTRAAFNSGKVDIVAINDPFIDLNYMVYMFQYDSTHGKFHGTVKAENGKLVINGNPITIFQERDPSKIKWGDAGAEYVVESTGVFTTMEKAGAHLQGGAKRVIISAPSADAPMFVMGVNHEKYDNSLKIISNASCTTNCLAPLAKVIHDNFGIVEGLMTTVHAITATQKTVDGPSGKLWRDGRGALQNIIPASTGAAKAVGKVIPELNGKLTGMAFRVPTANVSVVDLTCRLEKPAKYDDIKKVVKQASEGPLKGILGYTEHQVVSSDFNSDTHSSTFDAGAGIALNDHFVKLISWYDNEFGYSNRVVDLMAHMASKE

[13] = test system: Escherichia coli; assay: microbe, parasite or virus in culture
[14] = target: Cytochrome P450 2C19 (Homo sapiens, UniProt P33261); assay: Cytochrome panel assay with activity outcomes. Panel member name: p450-cyp2c19 Compounds with AC50 equal or less than 10 uM are considered active; format: functional; settings: read-out: AC50
Cytochrome P450 2C19, sequence (P33261 whole entry): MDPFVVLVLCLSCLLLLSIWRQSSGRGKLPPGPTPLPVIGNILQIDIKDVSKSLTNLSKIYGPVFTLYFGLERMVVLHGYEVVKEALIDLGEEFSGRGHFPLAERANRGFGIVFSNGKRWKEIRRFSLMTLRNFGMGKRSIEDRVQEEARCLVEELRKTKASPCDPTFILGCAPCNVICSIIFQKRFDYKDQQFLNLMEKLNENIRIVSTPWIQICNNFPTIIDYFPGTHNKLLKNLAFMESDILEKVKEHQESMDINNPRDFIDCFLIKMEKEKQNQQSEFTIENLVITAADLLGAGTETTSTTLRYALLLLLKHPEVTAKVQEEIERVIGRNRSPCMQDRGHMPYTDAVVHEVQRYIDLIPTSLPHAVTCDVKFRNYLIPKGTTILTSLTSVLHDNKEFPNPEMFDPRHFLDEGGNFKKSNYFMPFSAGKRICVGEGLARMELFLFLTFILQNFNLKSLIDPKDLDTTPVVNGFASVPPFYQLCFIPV

[15] = target: Cytochrome P450 2D6 (Homo sapiens, UniProt P10635);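 further: CYP2D6 member of a cytochrome P450 panel assay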
[16] = test system: HEK293; assay: cells; format: functional, cell-based; settings: Homo sapiens
[17] = target: Nucleotide-binding oligomerization domain-containing protein 2 (Homo sapiens, UniProt Q9HC29); assay: inhibition of NOD2-driven NF-kB reporter – cell-based, luminescence, uHTS, HEK293 (AID 1566); format: functional
[18] = test system: HEK293; assay: NOD2 signaling inhibitors in MDP-stimulated cells, cell-based, uHTS, luminescence (AID 2001); format: functional; settings: Homo sapiens
[19] = test system: HEK293; assay: cells; format: functional, cell-based; settings: Homo sapiens; remark: listed apart in the source
[20] = test system: HEK293; assay: cells; format: functional, cell-based; settings: Homo sapiens; remark: listed apart in the source
[21] = target: T6, Calpain-2 catalytic subunit (Sus scrofa, UniProt P43367); assay: m-calpain protease blockers, concentration series – biochemical, fluorogenic peptide substrate, dose response (AID 1420); format: functional
T6 sequence (P43367 whole entry): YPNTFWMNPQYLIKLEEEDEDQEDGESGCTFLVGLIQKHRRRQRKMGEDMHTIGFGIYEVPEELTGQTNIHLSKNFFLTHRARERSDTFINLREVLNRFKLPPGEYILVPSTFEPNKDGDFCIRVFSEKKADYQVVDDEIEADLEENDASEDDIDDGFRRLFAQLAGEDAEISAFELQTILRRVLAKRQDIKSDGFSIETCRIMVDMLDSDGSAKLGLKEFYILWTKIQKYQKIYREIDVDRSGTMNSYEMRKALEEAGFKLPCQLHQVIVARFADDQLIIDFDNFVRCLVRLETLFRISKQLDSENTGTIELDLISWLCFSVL

[22] = test system: HEK293; assay: inhibition of NOD1-driven NF-kB reporter – cell-based, luminescence, uHTS, primary screen (AID 1578); format: functional; settings: Homo sapiens

Compound: O=C(O)CCCNC(=O)/C=C/c1ccco1
- IC50 [1]: 151 µM (active)
- IC50 [2]: > 100 µM (active)
- IC50 [3]: 13.6 µM (active)
- IC50 [4]: 17.1 µM (active)

Compound: CN(C(=O)/C=C/c1ccc([N+](=O)[O-])s1)c1ccccc1
- AC50 [5]: 9.11 µM (active)

Compound: CCOC(=O)N1CCN(C(=O)CCCn2c(=S)[nH]c3ccsc3c2=O)CC1
- IC50 [6]: 12.3 µM (active)

Compound: COc1ccc(NC(=O)CCNS(=O)(=O)c2ccc3c(c2)c(=O)n(C)c(=O)n3C)cc1
- AC50 [7]: inconclusive
- AC50 [8]: inconclusive

Compound: COc1ccccc1NC(=O)CSc1nn2c(=O)c(C)nnc2s1
- IC50 [9]: 16.1 µM (active)

Compound: O=C(CSc1nc2ccccc2s1)c1ccc(O)c(O)c1
- IC50 [10]: 3.42 µM (active)
- IC50 [11]: 3.03 µM (active)

Compound: COC(=O)c1cc(C(=O)c2ccc(Cl)cc2Cl)cn1C
- AC50 [7]: inconclusive
- AC50 [8]: inconclusive

Compound: COC1=C(Nc2ccc(C)cc2)C(=O)c2ccccc2C1=O
- IC50 [9]: 10 µM (active)

Compound: NS(=O)(=O)c1ccc(CCNC(=O)/C=C/c2ccc([N+](=O)[O-])cc2)cc1
- IC50 [3]: > 50 µM (inactive)
- IC50 [4]: 9.65 µM (active)

Compound: O=C(NC1(C(F)(F)F)Oc2ccc(Cl)cc2O1)N1CCC2(CC1)OCCO2 (configuration not stated)
- IC50 [10]: 9.93 µM (active)

Compound: Cc1cc(NS(=O)(=O)c2ccc(NC(=O)COc3c(C)cc(Br)cc3C)cc2)no1
- IC50 [6]: 13.2 µM (active)

Compound: O=S(=O)(Nc1cccnc1)c1cc(Cl)ccc1F
- IC50 [12]: > 100 µM (not active)
- IC50 [11]: 46.5 µM (active)

Compound: Cc1cccc(C)c1OCc1nnc2c3cnn(-c4ccccc4)c3ncn12
- IC50 [10]: > 100 µM (inactive)
- IC50 [12]: > 100 µM (not active)
- IC50 [11]: > 100 µM (inactive)

Compound: O=S(=O)(Nc1ccccc1Br)c1cnc2ccccc2c1
- IC50 [12]: > 10 µM (inconclusive)
- IC50 [11]: > 10 µM (inactive)

Compound: Nc1nc(=O)n([C@H]2C[C@H](O)[C@@H](CO)O2)cc1F
- AC50 [13]: 33.8 µM (active)

Compound: C/C=C\C(=O)N(CC)c1ccccc1C
- AC50 [8]: inconclusive

Compound: CCOC(=O)Cn1nc(C)n(-c2ccc(C)cc2)c1=O
- AC50 [14]: 28.2 µM (inconclusive)
- AC50 [8]: inconclusive

Compound: CCOC(=O)N1CCN(C(=O)c2ccc3nc(N4CCC(C)CC4)sc3c2)CC1
- AC50 [14]: 11.2 µM (inconclusive)
- AC50 [15]: 28.2 µM (inconclusive)
- AC50 [8]: inconclusive

Compound: NC(=O)c1c(NC(=O)C(=O)N2CCOCC2)sc2c1CCC2
- AC50 [13]: 23.9 µM (active)

Compound: COc1cc([N+](=O)[O-])ccc1-c1ccc(/C=N/NC(=O)c2ccccc2O)o1
- IC50 [16]: > 20 µM (inactive)
- EC50 [17]: > 20 µM (inactive)
- IC50 [18]: 14.1 µM (inactive)
- IC50 [19]: > 20 µM (inactive)
- IC50 [20]: 19.9 µM (active)
- IC50 [21]: 8.3 µM (not active)
- EC50 [22]: > 20 µM (inactive)

Compound: CCCCN(C)C(=O)NC1(C(F)(F)F)Oc2ccccc2O1
- IC50 [10]: > 100 µM (inactive)
- IC50 [11]: > 100 µM (inactive)

Compound: Nc1ccccc1C(=O)NCC1(c2ccccc2)CCCC1
- AC50 [13]: 113 µM (active)

Compound: CC(C)c1ccc(NC(=O)CSc2nc(=O)n(CCCN3CCOCC3)c3c2CCC3)cc1
- IC50 [6]: 13.8 µM (active)

Compound: O=C(NCCO)c1cc(-c2cc(F)c(Cl)cc2Cl)n[nH]1
- IC50 [10]: > 25 µM (inactive)
- IC50 [12]: > 100 µM (not active)

Compound: CCOC(=O)CCc1ccc(NC(=O)/C=C/c2ccc([N+](=O)[O-])o2)cc1
- AC50 [5]: 6.83 µM (active)
